Laboratory results from US6107345A, “Benzocyclobutane compounds” (Adir et Compagnie, priority 1998, dated 2000).

Legend:
mouse [1] = assay: Suspension-by-the-tail test in the mouse; type: in vivo; settings: for Immobility: 6 minutes of the test
Description: Suspension-by-the-tail test in the mouse
In this variation of the forced swimming test, the state of despair is induced in the mouse by suspending it head down by its tail. Placed in that uncomfortable situation, the animal struggles vigorously to start with and then adopts an immobile posture. Antidepressant products reduce the duration of immobility of the animal.
The animals are male NMRI (IFFA-CREDO) mice (22-26 g) which are housed, in groups of 20, in transparent plastic cages (59×38×20 cm) on sawdust, with food and drink as desired. On the day of the test, each mouse is placed in a separate cage as soon as it has been treated (sub-cutaneously) with the product or the solvent. Thirty minutes later, the animal is suspended by the tail from a hook using an adhesive tape attached to the tail. The hook is connected to a tension sensor which transmits all the animal's movements to a central processor ([…]-TST 1 system, ITEM-LABO, France). The total duration (sec.) of immobility of the animal during the 6 minutes of the test is recorded automatically.
The differences in the duration of immobility between the treated groups (product) and the control group (solvent) are analysed statistically by ANOVA followed by Dunnett's test, wherein p<0.05.

mouse [2] = assay: Forced swimming test in the mouse; type: in vivo; settings: for Duration of immobility: last 4 minutes (T2-T6)
Protocol: Forced swimming test in the mouse (Porsolt et al., 1977)
The forced swimming test in the mouse consists of inducing a state of despair in the animal by placing it for 6 minutes in a cylinder full of water, from which it cannot escape. The naive animal struggles vigorously for the first few minutes and then adopts an immobile posture for the last few minutes of the test. Antidepressant products reduce the duration of immobility of the animal during the test.
the animals are male CD (IFFA-CREDO) mice (22-26 g) which, on the day before the test, are placed individually in transparent plastic cages (25×15×14 cm) on sawdust, with food and drink as desired. On the day of the test, 30 minutes after treatment (product or solvent, administered sub-cutaneously), each mouse is plunged for 6 minutes (T0-T6) in a glass cylinder (23.5 cm in height, 11.5 cm in diameter) filled to a height of 6 centimeters with water maintained at 24±0.5° C. The total duration of immobility (sec.) of the animal during the last 4 minutes of the test (T2-T6) is observed: a mouse is considered to be immobile when it is floating in the water, making only small movements to keep its head out of the water.
The differences between the treated groups (product) and the control group (solvent) are evaluated statistically by variance analysis followed by Dunnett's test wherein p<0.05.

[3] = target: T1, noradrenaline reuptake sites (Rattus norvegicus, UniProt Q63380); assay: Determination of the affinity for noradrenaline reuptake sites ([3H]-nisoxetine competition); type: binding; settings: frontal cortex membranes, 2 nM [3H]-nisoxetine, 4 hours at 4° C., pH 7.4; read-out: pKi, noradrenaline reuptake sites (converted)
T1 construct: The membranes are prepared from frontal cortex of rat; from tissue; host or cells: rat frontal cortex membranes
T1 sequence (Q63380 1-617): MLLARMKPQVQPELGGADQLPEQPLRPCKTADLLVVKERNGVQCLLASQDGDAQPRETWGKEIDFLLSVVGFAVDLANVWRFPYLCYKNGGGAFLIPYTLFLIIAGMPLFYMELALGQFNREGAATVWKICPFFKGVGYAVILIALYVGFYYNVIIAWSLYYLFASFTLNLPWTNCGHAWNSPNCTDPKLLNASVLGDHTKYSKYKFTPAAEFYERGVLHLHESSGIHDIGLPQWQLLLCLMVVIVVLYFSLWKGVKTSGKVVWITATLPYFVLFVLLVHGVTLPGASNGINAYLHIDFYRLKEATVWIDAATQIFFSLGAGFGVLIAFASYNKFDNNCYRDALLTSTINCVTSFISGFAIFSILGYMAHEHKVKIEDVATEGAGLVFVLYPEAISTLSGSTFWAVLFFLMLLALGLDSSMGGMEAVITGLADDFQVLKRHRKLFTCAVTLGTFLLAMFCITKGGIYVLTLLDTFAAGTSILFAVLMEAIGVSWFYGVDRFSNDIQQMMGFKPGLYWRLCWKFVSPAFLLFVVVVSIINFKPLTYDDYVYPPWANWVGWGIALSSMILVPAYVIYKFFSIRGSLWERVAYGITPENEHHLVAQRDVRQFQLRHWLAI
Protocol: The binding isotherms are analysed by non-linear regression to determine the IC50 values. Those values are converted into a dissociation constant (Ki) using the Cheng-Prusoff equation: […]
(§1) The results are expressed in pKi (-log Ki).

serotonin reuptake sites = target: T2, serotonin reuptake sites (Rattus norvegicus, UniProt P31652); assay: Determination of the affinity for serotonin reuptake sites ([3H]-paroxetine competition); type: binding; settings: frontal cortex membranes, 1.0 nM [3H]-paroxetine, 2 hours at 25° C., pH 7.4; read-out: pKi, serotonin reuptake sites (converted)
T2 construct: The membranes are prepared from frontal cortex of rate; from tissue; host or cells: frontal cortex membranes (rat, printed 'rate')
T2 sequence (P31652 whole entry): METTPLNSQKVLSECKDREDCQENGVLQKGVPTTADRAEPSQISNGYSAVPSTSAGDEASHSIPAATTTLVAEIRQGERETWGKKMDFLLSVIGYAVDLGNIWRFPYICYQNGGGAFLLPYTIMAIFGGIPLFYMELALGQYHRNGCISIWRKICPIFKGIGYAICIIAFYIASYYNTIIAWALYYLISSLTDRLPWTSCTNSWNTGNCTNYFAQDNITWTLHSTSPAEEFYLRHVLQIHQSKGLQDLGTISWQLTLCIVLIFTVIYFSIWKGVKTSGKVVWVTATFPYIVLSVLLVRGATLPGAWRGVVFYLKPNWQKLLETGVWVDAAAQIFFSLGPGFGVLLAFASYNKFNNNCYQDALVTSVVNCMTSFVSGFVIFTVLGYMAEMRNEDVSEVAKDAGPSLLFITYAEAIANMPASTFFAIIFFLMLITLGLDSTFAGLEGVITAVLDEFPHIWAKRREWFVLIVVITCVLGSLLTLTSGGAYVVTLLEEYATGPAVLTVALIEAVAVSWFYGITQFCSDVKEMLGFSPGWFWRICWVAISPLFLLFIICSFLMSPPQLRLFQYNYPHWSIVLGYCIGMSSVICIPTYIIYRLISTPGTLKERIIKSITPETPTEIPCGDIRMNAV
Protocol: Determination of the affinity for serotonin reuptake sites
The incubation buffer contains […] TRIS-HCl (pH 7.4), 120 mM NaCl and 5 mM KCl. The non-specific binding is determined using 10 μM citalopram. At the end of the incubation, the incubation medium is filtered and washed three times with 5 ml of cooled buffer. The radioactivity retained on the filters is determined by liquid scintillation counting. The binding isotherms are analysed by non-linear regression to determine the IC50 values. Those values are converted into a dissociation constant (Ki) using the Cheng-Prusoff equation: […]
as §1

COc1ccc2c(c1)C(CN(C)C)(C1(O)CCCCC1)C2 (stereo not drawn) [Example 3, 1-(N,N-Dimethylaminomethyl)-1-(1-hydroxycyclohex-1-yl)-5-methoxybenzocyclobutane]
Immobility, %/control (mouse [1]; 0.63 mg/kg s.c.): 88%
Immobility (mouse [1]; 0.63 mg/kg s.c.): 70.4 ± 13.5 s
Immobility, %/control (mouse [1]; 2.5 mg/kg s.c.): 51%
Immobility (mouse [1]; 2.5 mg/kg s.c.): 41.1 ± 9.6 s
Immobility, %/control (mouse [1]; 10.0 mg/kg s.c.): 35%
Immobility (mouse [1]; 10.0 mg/kg s.c., * p < 0.05): 27.8 ± 9.6 s

COc1ccc2c(c1)CC2(CN(C)C)C1(O)CCCCC1 (stereo not drawn) [Example 4, 1-(N,N-Dimethylaminomethyl)-1-(1-hydroxycyclohex-1-yl)-4-methoxybenzocyclobutane]
Duration of immobility, %/control (mouse [2]; 0.63 mg/kg s.c.): 94%
Duration of immobility (mouse [2]; 0.63 mg/kg s.c.): 157.3 ± 18.9 s
Duration of immobility, %/control (mouse [2]; 2.5 mg/kg s.c.): 61%
Duration of immobility (mouse [2]; 2.5 mg/kg s.c.): 101.6 ± 57.3 s
Duration of immobility, %/control (mouse [2]; 10.0 mg/kg s.c.): 4%
Duration of immobility (mouse [2]; 10.0 mg/kg s.c., * p < 0.05): 6.1 ± 6.1 s

COc1cccc2c1C(CN(C)C)(C1(O)CCCCC1)C2 (stereo not drawn) [Example 9, 1-(N,N-Dimethylaminomethyl)-1-(1-hydroxycyclohex-1-yl)-6-methoxybenzocyclobutane]
Ki [3]: 56.2 nM

CNCCC(Oc1ccc(C(F)(F)F)cc1)c1ccccc1 (stereo not drawn) [fluoxetine, reference compound]
Duration of immobility, %/control (mouse [2]; 2.5 mg/kg s.c.): 94%
Duration of immobility, %/control (mouse [2]; 10.0 mg/kg s.c.): 75%
Duration of immobility, %/control (mouse [2]; 40.0 mg/kg s.c.): 73%
Immobility, %/control (mouse [1]; 40.0 mg/kg s.c.): 91%
Immobility (mouse [1]; 40.0 mg/kg s.c.): 69.9 ± 17.8 s
Immobility, %/control (mouse [1]; 80.0 mg/kg s.c.): 110%
Immobility (mouse [1]; 80.0 mg/kg s.c.): 84.3 ± 12.4 s

COc1ccc2c(c1)C(CN(C)C)(C1(O)CCCCC1)C2 (single isomer, unassigned; (-)) [Example 8, (-)-Isomer of 1-(N,N-dimethylaminomethyl)-1-(1-hydroxycyclohex-1-yl)-5-methoxybenzocyclobutane]
Ki (serotonin reuptake sites): 2 nM
